Data from PMC10254314 (2023).

Legend:
[1] = test system: poly A–poly U (pApU) (RNA, polymer) A/U; test: UV thermal melting at 260 nm; settings: Na+ (sodium cacodylate, I = 0.05 M), pH 7, r = [compound]/[polynucleotide] = 0.3, polynucleotide 2 × 10^-5 M, per base
[2] = test system: poly dAdT–poly dAdT (AT-DNA) (DNA, polymer) AT; test: UV thermal melting at 260 nm; settings: Na+ (sodium cacodylate, I = 0.05 M), pH 7, r = [compound]/[polynucleotide] = 0.3, polynucleotide 2 × 10^-5 M, per base
[3] = test system: poly dAdT–poly dAdT (AT-DNA) (DNA, polymer) AT; test: UV/vis titration, Scatchard (McGhee–von Hippel) fit; settings: Na+ (sodium cacodylate, I = 0.05 M), pH 7.0, n fixed 0.2, per base

| ΔTm [1] | ΔTm [2] | logKs [3] | SMILES |
| --- | --- | --- | --- |
| +1 ± 0.5 °C |  |  | COc1cc2c(cc1OC)SC(c1ccc(NCc3ccc(Cl)cc3)cc1)=[N+](C)C2 |
| −1.5 ± 0.5 °C |  |  | COc1cc2c(cc1OC)SC(c1ccc(NCc3cccc(C)c3)cc1)=[N+](C)C2 |
| +3.5 ± 0.5 °C | −1.5 ± 0.5 °C | 4.9 | COc1ccc(Nc2ccc(C3=[N+](C)Cc4cc(Nc5ccc(OC)cc5)ccc4S3)cc2)cc1 |
| −1.2 ± 0.5 °C | −2.1 ± 0.5 °C | 4.9 | COc1ccc(Nc2ccc(C3=[N+](C)Cc4cccc(Nc5ccc(OC)cc5)c4S3)cc2)cc1 |
